Key:
Settings in all cases: exposure time: 72 h
E13 [1] = patient-derived glioblastoma stem cells of classical subtype; assay: surviving fraction (nuclei count normalised to DMSO); higher = more cells surviving (less toxic)
E21 [2] = patient-derived glioblastoma stem cells of mesenchymal subtype; assay: as above
E28 [3] = patient-derived glioblastoma stem cells of classical subtype; assay: as above
E31 [4] = patient-derived glioblastoma stem cells of proneural subtype; assay: as above
E34 [5] = patient-derived glioblastoma stem cells of proneural subtype; assay: as above
E57 [6] = patient-derived glioblastoma stem cells of mesenchymal subtype; assay: as above
FT3469 [7] = normal neural stem cell line; assay: as above
E13 [8] = assay: phenotypic distance (Euclidean, principal components) from DMSO controls (arbitrary units); higher = stronger morphological change
E21 [9] = assay: as above
E28 [10] = assay: as above
E31 [11] = assay: as above
E34 [12] = assay: as above
E57 [13] = assay: as above
FT3469 [14] = assay: as above
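Throughout, for phenotypic distance (Euclidean, principal components) from DMSO controls: cell Painting imaging in 384-well plates, CellProfiler features reduced to at least 20 principal components, Euclidean distance versus same-plate DMSO vehicle wells (0.1% v/v), median over six images per well.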
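Throughout, for surviving fraction (nuclei count normalised to DMSO): nuclei counted by high-content imaging of Hoechst-stained cells in laminin-coated 384-well plates, relative to 0.1% DMSO vehicle wells, with staurosporine as cell-death control.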

COC(=O)C1=C(C)NC(C)=C(C(=O)OCC(C)C)C1c1ccccc1[N+](=O)[O-] (stereo unspecified) [Nisoldipine]
Settings	phenotypic distance	surviving fraction
E13 [1], 4.1 nM	–	0.894
E13 [1], 12.3 nM	–	1.08
E13 [1], 37 nM	–	0.924
E13 [1], 111.1 nM	–	0.974
E13 [1], 333.3 nM	–	0.947
E13 [1], 1000 nM	–	0.946
E13 [1], 3000 nM	–	0.883
E13 [8], 4.1 nM	0.597	–
E13 [8], 12.3 nM	0.435	–
E13 [8], 37 nM	0.491	–
E13 [8], 111.1 nM	3.02	–
E13 [8], 333.3 nM	1.31	–
E13 [8], 1000 nM	1.21	–
E13 [8], 3000 nM	1.2	–
E21 [2], 4.1 nM	–	0.82
E21 [2], 12.3 nM	–	0.905
E21 [2], 37 nM	–	0.945
E21 [2], 111.1 nM	–	0.892
E21 [2], 333.3 nM	–	0.945
E21 [2], 1000 nM	–	0.942
E21 [2], 3000 nM	–	0.857
E21 [9], 4.1 nM	0.832	–
E21 [9], 12.3 nM	0.907	–
E21 [9], 37 nM	1.12	–
E21 [9], 111.1 nM	1.2	–
E21 [9], 333.3 nM	0.961	–
E21 [9], 1000 nM	0.669	–
E21 [9], 3000 nM	1.16	–
E28 [3], 4.1 nM	–	0.944
E28 [3], 12.3 nM	–	0.957
E28 [3], 37 nM	–	0.921
E28 [3], 111.1 nM	–	0.86
E28 [3], 333.3 nM	–	0.843
E28 [3], 1000 nM	–	0.972
E28 [3], 3000 nM	–	0.9
E28 [10], 4.1 nM	0.647	–
E28 [10], 12.3 nM	0.706	–
E28 [10], 37 nM	1.08	–
E28 [10], 111.1 nM	0.981	–
E28 [10], 333.3 nM	0.997	–
E28 [10], 1000 nM	0.908	–
E28 [10], 3000 nM	0.792	–
E31 [4], 4.1 nM	–	0.972
E31 [4], 12.3 nM	–	0.914
E31 [4], 37 nM	–	0.886
E31 [4], 111.1 nM	–	0.892
E31 [4], 333.3 nM	–	0.949
E31 [4], 1000 nM	–	0.996
E31 [4], 3000 nM	–	0.938
E31 [11], 4.1 nM	0.922	–
E31 [11], 12.3 nM	1.01	–
E31 [11], 37 nM	1.26	–
E31 [11], 111.1 nM	0.944	–
E31 [11], 333.3 nM	0.976	–
E31 [11], 1000 nM	1.03	–
E31 [11], 3000 nM	1.31	–
E34 [5], 4.1 nM	–	0.949
E34 [5], 12.3 nM	–	0.965
E34 [5], 37 nM	–	1.04
E34 [5], 111.1 nM	–	0.931
E34 [5], 333.3 nM	–	0.853
E34 [5], 1000 nM	–	0.959
E34 [5], 3000 nM	–	0.955
E34 [12], 4.1 nM	2	–
E34 [12], 12.3 nM	0.511	–
E34 [12], 37 nM	0.835	–
E34 [12], 111.1 nM	0.542	–
E34 [12], 333.3 nM	0.889	–
E34 [12], 1000 nM	0.614	–
E34 [12], 3000 nM	1.06	–
E57 [6], 4.1 nM	–	0.904
E57 [6], 12.3 nM	–	0.985
E57 [6], 37 nM	–	0.923
E57 [6], 111.1 nM	–	0.969
E57 [6], 333.3 nM	–	0.929
E57 [6], 1000 nM	–	1.07
E57 [6], 3000 nM	–	0.96
E57 [13], 4.1 nM	0.873	–
E57 [13], 12.3 nM	0.508	–
E57 [13], 37 nM	0.494	–
E57 [13], 111.1 nM	0.633	–
E57 [13], 333.3 nM	0.615	–
E57 [13], 1000 nM	0.552	–
E57 [13], 3000 nM	0.478	–
FT3469 [7], 4.1 nM	–	0.965
FT3469 [7], 12.3 nM	–	0.938
FT3469 [7], 37 nM	–	1.04
FT3469 [7], 111.1 nM	–	0.966
FT3469 [7], 333.3 nM	–	0.965
FT3469 [7], 1000 nM	–	0.942
FT3469 [7], 3000 nM	–	0.896
FT3469 [14], 4.1 nM	0.816	–
FT3469 [14], 12.3 nM	1.12	–
FT3469 [14], 37 nM	0.632	–
FT3469 [14], 111.1 nM	0.827	–
FT3469 [14], 333.3 nM	1.05	–
FT3469 [14], 1000 nM	1.4	–
FT3469 [14], 3000 nM	0.987	–

COc1cc2c[n+](C)c3c4cc5c(cc4ccc3c2cc1OC)OCO5 [Nitidine chloride]
Settings	phenotypic distance	surviving fraction
E13 [1], 4.1 nM	–	1.02
E13 [1], 12.3 nM	–	0.937
E13 [1], 37 nM	–	1.01
E13 [1], 111.1 nM	–	1.01
E13 [1], 333.3 nM	–	0.836
E13 [1], 1000 nM	–	0.752
E13 [1], 3000 nM	–	0.397
E13 [8], 4.1 nM	0.679	–
E13 [8], 12.3 nM	2.36	–
E13 [8], 37 nM	0.78	–
E13 [8], 111.1 nM	0.431	–
E13 [8], 333.3 nM	1.36	–
E13 [8], 1000 nM	1.35	–
E13 [8], 3000 nM	4.56	–
E21 [2], 4.1 nM	–	0.997
E21 [2], 12.3 nM	–	0.869
E21 [2], 37 nM	–	0.959
E21 [2], 111.1 nM	–	0.703
E21 [2], 333.3 nM	–	0.302
E21 [2], 1000 nM	–	0.295
E21 [2], 3000 nM	–	0.066
E21 [9], 4.1 nM	0.786	–
E21 [9], 12.3 nM	0.739	–
E21 [9], 37 nM	1.02	–
E21 [9], 111.1 nM	1.99	–
E21 [9], 333.3 nM	3.87	–
E21 [9], 1000 nM	4.46	–
E21 [9], 3000 nM	5.64	–
E28 [3], 4.1 nM	–	0.955
E28 [3], 12.3 nM	–	0.92
E28 [3], 37 nM	–	0.878
E28 [3], 111.1 nM	–	0.754
E28 [3], 333.3 nM	–	0.506
E28 [3], 1000 nM	–	0.575
E28 [3], 3000 nM	–	0.216
E28 [10], 4.1 nM	0.661	–
E28 [10], 12.3 nM	0.746	–
E28 [10], 37 nM	1.02	–
E28 [10], 111.1 nM	1.34	–
E28 [10], 333.3 nM	2.74	–
E28 [10], 1000 nM	2.93	–
E28 [10], 3000 nM	3.24	–
E31 [4], 4.1 nM	–	0.905
E31 [4], 12.3 nM	–	1.08
E31 [4], 37 nM	–	0.804
E31 [4], 111.1 nM	–	0.738
E31 [4], 333.3 nM	–	0.582
E31 [4], 1000 nM	–	0.599
E31 [4], 3000 nM	–	0.19
E31 [11], 4.1 nM	0.468	–
E31 [11], 12.3 nM	0.762	–
E31 [11], 37 nM	0.828	–
E31 [11], 111.1 nM	1.43	–
E31 [11], 333.3 nM	1.85	–
E31 [11], 1000 nM	2.23	–
E31 [11], 3000 nM	3.9	–
E34 [5], 4.1 nM	–	1.08
E34 [5], 12.3 nM	–	1.06
E34 [5], 37 nM	–	0.769
E34 [5], 111.1 nM	–	1.08
E34 [5], 333.3 nM	–	0.743
E34 [5], 1000 nM	–	0.706
E34 [5], 3000 nM	–	0.559
E34 [12], 4.1 nM	0.655	–
E34 [12], 12.3 nM	0.652	–
E34 [12], 37 nM	0.901	–
E34 [12], 111.1 nM	1.63	–
E34 [12], 333.3 nM	1.88	–
E34 [12], 1000 nM	2.46	–
E34 [12], 3000 nM	3.01	–
E57 [6], 4.1 nM	–	0.996
E57 [6], 12.3 nM	–	0.919
E57 [6], 37 nM	–	0.965
E57 [6], 111.1 nM	–	0.946
E57 [6], 333.3 nM	–	0.91
E57 [6], 1000 nM	–	0.923
E57 [6], 3000 nM	–	0.216
E57 [13], 4.1 nM	0.377	–
E57 [13], 12.3 nM	0.436	–
E57 [13], 37 nM	0.309	–
E57 [13], 111.1 nM	0.645	–
E57 [13], 333.3 nM	1.22	–
E57 [13], 1000 nM	1.25	–
E57 [13], 3000 nM	7	–
FT3469 [7], 4.1 nM	–	0.854
FT3469 [7], 12.3 nM	–	0.86
FT3469 [7], 37 nM	–	0.854
FT3469 [7], 111.1 nM	–	0.752
FT3469 [7], 333.3 nM	–	0.679
FT3469 [7], 1000 nM	–	0.646
FT3469 [7], 3000 nM	–	0.601
FT3469 [14], 4.1 nM	0.874	–
FT3469 [14], 12.3 nM	0.863	–
FT3469 [14], 37 nM	0.732	–
FT3469 [14], 111.1 nM	1.27	–
FT3469 [14], 333.3 nM	2.17	–
FT3469 [14], 1000 nM	2.35	–
FT3469 [14], 3000 nM	2.82	–

From the supplement of paper PMC13207355
